How the values were obtained:
hM2 receptor = biological target: T1, hM2 receptor (Homo sapiens, UniProt P08172); assay: Blockade of agonist-mediated [35S]GTPγS binding (Assay Test Procedure D, B); assay type: biochemical; details: CHO-K1 cells expressing the hM2 receptor; read-out: Ki value for blockade of oxotremorine-stimulated [35S]GTPγS binding
T1 construct: expressed in transfected cells; host or cells: CHO-K1 cells
T1 sequence (P08172 1-466): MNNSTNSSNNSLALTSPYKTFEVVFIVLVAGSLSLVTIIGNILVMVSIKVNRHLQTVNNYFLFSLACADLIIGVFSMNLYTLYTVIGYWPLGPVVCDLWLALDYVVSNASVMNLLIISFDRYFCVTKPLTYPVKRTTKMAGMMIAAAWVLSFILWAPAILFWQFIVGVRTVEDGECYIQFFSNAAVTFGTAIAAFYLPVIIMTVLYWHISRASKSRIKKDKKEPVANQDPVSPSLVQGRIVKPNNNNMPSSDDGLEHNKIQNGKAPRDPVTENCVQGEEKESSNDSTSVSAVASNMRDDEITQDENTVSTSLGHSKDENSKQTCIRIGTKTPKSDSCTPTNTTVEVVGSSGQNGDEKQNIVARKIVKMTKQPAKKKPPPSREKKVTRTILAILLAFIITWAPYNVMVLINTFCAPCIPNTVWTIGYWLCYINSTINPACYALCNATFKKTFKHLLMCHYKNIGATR
Protocol: In a second functional assay, the functional potency of test compounds was determined by measuring the ability of the compounds to block oxotremorine-stimulated [^35S]GTPγS binding in CHO-K1 cells expressing the hM2 receptor.
At the time of use, frozen membranes were thawed and then diluted in assay buffer with a final target tissue concentration of 5-10 μg protein per well. The membranes were briefly homogenized using a Polytron PT-2100 tissue disrupter and then added to the assay plates.
The EC90 value (effective concentration for 90% maximal response) for stimulation of [^35S]GTPγS binding by the agonist oxotremorine was, determined in each experiment.
To determine the ability of a test compound to inhibit oxotremorine-stimulated [^35S]GTPγS binding, the following was added to each well of 96 well plates: […] of assay buffer with [^35S]GTPγS (0.4 nM), 25 μL of oxotremorine (EC90) and GDP (3 uM), 25 μL of diluted test compound and 25 μL CHO cell membranes expressing the hM2 receptor. […] Microscint-20 scintillation liquid (50 μL) was added to each well, and each plate was sealed and radioactivity counted on a Topcounter (PerkinElmer). Data were analyzed by nonlinear regression analysis with the GraphPad Prism Software package (GraphPad Software, Inc., San Diego, Calif.) using the non-linear regression, one-site competition equation. […]

[1] = biological target: T2, human β2 adrenergic receptor (Homo sapiens, UniProt P07550); assay: Whole-cell cAMP Flashplate assay in CHO cell lines heterologously expressing human β2 adrenergic receptor (Assay Test Procedure C); assay type: cell-based
T2 construct: expressed in transfected cells; membranes
Protocol: cAMP assays were performed in a radioimmunoassay format using the Flashplate Adenylyl Cyclase Activation Assay System with [^125I]-cAMP (NEN SMP004, PerkinElmer Life Sciences Inc., Boston, Mass.), according to the manufacturers instructions. For the determination of […] receptor agonist potency (EC50), CHO-K1 cell lines stably expressing cloned human β1, β2 or β3 adrenergic receptors were grown to near confluency in HAM's F-12 media supplemented with 10% FBS and Geneticin (250 μg/mL). Cells were rinsed with PBS and detached in dPBS (Dulbecco's Phosphate Buffered Saline, without CaCl2 and MgCl2) containing 2 mM EDTA or Trypsin-EDTA solution (0.05% trypsin/0.53 mM EDTA). After counting cells in Coulter cell counter, cells were pelleted by centrifugation at 1,000 rpm and re-suspended in stimulation buffer containing IBMX (PerkinElmer Kit) pre-warmed to room temperature to a concentration of 1.6×10^6 to 2.8×10^6 cells/mL. About 60,000 to 80,000 cells per well were used in this assay. […] The amount of cAMP produced (pmol/well) was calculated based on the counts observed for the samples and cAMP standards as described in the manufacturer's user manual. Data were analyzed by nonlinear regression analysis with the GraphPad Prism Software package (GraphPad Software, Inc., San Diego, Calif.) with the sigmoidal equation. […]

T2 sequence (P07550 whole entry): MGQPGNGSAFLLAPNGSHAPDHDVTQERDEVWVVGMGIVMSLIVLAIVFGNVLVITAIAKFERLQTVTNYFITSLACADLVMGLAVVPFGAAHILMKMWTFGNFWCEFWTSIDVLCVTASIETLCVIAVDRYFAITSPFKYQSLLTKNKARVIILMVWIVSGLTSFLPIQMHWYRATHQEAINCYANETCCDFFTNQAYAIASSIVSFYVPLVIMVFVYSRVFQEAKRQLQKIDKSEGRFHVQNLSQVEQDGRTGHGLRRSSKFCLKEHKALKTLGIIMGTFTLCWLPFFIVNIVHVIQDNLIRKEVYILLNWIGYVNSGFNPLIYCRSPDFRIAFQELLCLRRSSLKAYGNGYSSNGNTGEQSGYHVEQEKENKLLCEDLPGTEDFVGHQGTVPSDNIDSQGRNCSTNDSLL

C[N+]1(CCCCCCCCCNC[C@H](O)c2ccc(O)c3[nH]c(=O)ccc23)C2CC(OC(=O)C(O)(c3cccs3)c3cccs3)CC1C1OC12.C[N+]1(CCCCCCCCCNC[C@H](O)c2ccc(O)c3[nH]c(=O)ccc23)C2CC(OC(=O)C(O)(c3cccs3)c3cccs3)CC1C1OC12.O=C([O-])C(F)(F)F.O=C([O-])C(F)(F)F (stereo partly drawn) [Example 1, 7-(2-Hydroxy-2,2-dithiophen-2-ylacetoxy)-9-{9-[(R)-2-hydroxy-2-(8-hydroxy-2-oxo-1,2-dihydroquinolin-5-yl)ethylamino]nonyl}-9-methyl-3-oxa-9-azonia-tricyclo[3.3.1.0^2,4]nonane Ditrifluoroacetate]
Ki (hM2 receptor): < 50 nM
EC50 ([1]; cAMP, CHO-K1 cells expressing cloned human β2 receptor): < 10 nM
ratio of EC50(β1)/EC50(β2) ([1]; receptor subtype selectivity, functional, β2 over β1): greater than 10
